Source: ChEMBL document CHEMBL3124743, “Imaging evaluation of 5HT2C agonists, [(11)C]WAY-163909 and [(11)C]vabicaserin, formed by Pictet-Spengler cyclization” (J Med Chem, 2014)
One block for each molecule: values may come before it.

Tests used:
Brain [1] = experiment: Drug uptake in Sprague-Dawley rat assessed as retention time in brain at 0.99 mCi, iv by PET imaging; assay type: ADME, organism-based
[2] = target: T1, 5-hydroxytryptamine receptor 2C (Homo sapiens, UniProt P28335); experiment: Displacement of [125I]DOI from human 5-HT2C receptor
T1 sequence (P28335 whole entry): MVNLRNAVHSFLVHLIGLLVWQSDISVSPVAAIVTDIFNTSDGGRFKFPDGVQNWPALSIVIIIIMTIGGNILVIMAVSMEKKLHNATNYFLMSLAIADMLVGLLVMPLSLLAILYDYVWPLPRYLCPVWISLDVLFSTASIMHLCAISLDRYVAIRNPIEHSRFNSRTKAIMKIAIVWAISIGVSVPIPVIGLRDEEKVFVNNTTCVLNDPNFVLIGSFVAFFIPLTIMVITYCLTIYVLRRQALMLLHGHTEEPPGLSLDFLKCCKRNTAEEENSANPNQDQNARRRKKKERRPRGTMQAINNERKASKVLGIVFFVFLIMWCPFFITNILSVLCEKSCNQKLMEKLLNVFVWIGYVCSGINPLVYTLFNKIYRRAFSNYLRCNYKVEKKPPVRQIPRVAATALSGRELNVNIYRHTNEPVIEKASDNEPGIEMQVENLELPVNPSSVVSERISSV

Brain [3] = experiment: Drug uptake in Sprague-Dawley rat in regions outside brain at 0.303 mCi, iv by PET imaging; assay type: ADME, organism-based; conditions: in vivo
Brain [4] = experiment: Drug uptake in Papio anubis assessed as maximal uptake in brain at 2.33 mCi, iv after 20 mins of injection by PET imaging; assay type: ADME, organism-based; conditions: in vivo
Brain [5] = experiment: Drug uptake in Papio anubis assessed as retention time in brain at 2.33 mCi, iv by PET imaging; assay type: ADME, organism-based
[6] = Fraction unbound in Papio Anubis plasma at 2.33 mCi, iv by PET imaging; assay type: ADME, organism-based
[7] = Octanol-water partition coefficient, log D of the compound at pH 7.4; assay type: physicochemical
Brain [8] = experiment: Drug uptake in Sprague-Dawley rat assessed as retention time in brain at 0.303 mCi, iv by PET imaging; assay type: ADME, organism-based

- Retention_time (Brain [1]): 60 min
SMILES: c1cc2c3c(c1)[C@H]1CCC[C@H]1CN3CCN[11CH2]2

- Ki [2]: 3 nM
SMILES: c1cc2c3c(c1)[C@H]1CCC[C@H]1CN3CCNC2 [VABICASERIN]

- Drug uptake (Brain [3]): Active
- Drug uptake (Brain [4]): Active
- Retention_time (Brain [5]): 80 min
- fraction unbound [6]: 0.265
- logD [7]: 1.53
- Retention_time (Brain [8]): 60 min
SMILES: c1cc2c3c(c1)[C@H]1CCC[C@H]1N3CCN[11CH2]2
